≈ marks a conversion by molar mass, not a printed value.
Tests used:
physchem = settings: organic solvent or mixture, thermodynamic from solid, Solubility In DMI (mg/ml)
[1] = solvent dimethyl isosorbide (DMI); dissolved with gentle heating as needed

`CC[C@@]1(O)C(=O)OCc2c1cc1n(c2=O)Cc2cc3ccccc3nc2-1` [Campothecin] gave a solubility (physchem; solvent dimethyl isosorbide (DMI), dissolved with gentle heating as needed) of under 1 mg/mL.
For `CC(=O)O[C@@]12CO[C@@H]1C[C@H](O)[C@@]1(C)C(=O)[C@H](O)C3=C(C)[C@@H](OC(=O)[C@H](O)[C@@H](NC(=O)OC(C)(C)C)c4ccccc4)C[C@@](O)([C@@H](OC(=O)c4ccccc4)[C@H]21)C3(C)C` [Docetaxel], the solubility (physchem) was 90 mg/mL (≈ 111 mM).
`CCC(C)n1ncn(-c2ccc(N3CCN(c4ccc(OCC5COC(Cn6cncn6)(c6ccc(Cl)cc6Cl)O5)cc4)CC3)cc2)c1=O` (centres unmarked) [Itraconazole] gave a solubility (physchem) of 9.6 mg/mL (≈ 13.6 mM).
In the case of `COc1ccc2[nH]cc(CCNC(C)=O)c2c1` [Melatonin], the solubility (physchem) is reported as 192 mg/mL (≈ 827 mM).
`COc1ccc2[nH]c([S+]([O-])Cc3ncc(C)c(OC)c3C)nc2c1` (centres unmarked) [Omeprazole] showed a solubility (physchem) of 17.4 mg/mL (≈ 50.4 mM).
With `CC(C)c1cccc(C(C)C)c1O` [Propofol] the “Solubility In DMI (mg/ml)” value [1] was “completely”.
With `CO[C@H]1C[C@@H]2CC[C@@H](C)[C@@](O)(O2)C(=O)C(=O)N2CCCC[C@H]2C(=O)O[C@H]([C@H](C)C[C@@H]2CC[C@@H](O)[C@H](OC)C2)CC(=O)[C@H](C)/C=C(\C)[C@@H](O)[C@@H](OC)C(=O)[C@H](C)C[C@H](C)/C=C/C=C/C=C/1C` [Rapamycin] the solubility (physchem) was 121 mg/mL (≈ 132 mM).
With `CCc1c2c(nc3ccc(O)cc13)-c1cc3c(c(=O)n1C2)COC(=O)[C@]3(O)CC` [SN-38] the “Solubility In DMI” value [1] was under 1 mg/mL.

Reference: patent publication US20080171687A1, “Compositions And Methods For The Preparation And Administration Of Poorly Water Soluble Drugs” (Abraxis Bioscience, Inc., priority 2004, published 2008)
